The record followed here is patent publication US20250073358A1, “AROMATIC VINYL COMPOUND, METAL COMPLEX THEREOF, AND PREPARATION METHOD THEREFOR AND USE THEREOF” (SHANGHAI MAXINOVEL PHARMACEUTICALS CO., LTD., priority 2021, published 2025).

One data set has as its target PD-1/PD-L1 (Homo sapiens (Human), UniProt Q9NZQ7). In words: Homogenouse Time-Resolved Fluorescence (HTRF) binding assay, PD-1/PD-L1. The protocol:
Homogenouse Time-Resolved Fluorescence (HTRF) binding assay was used to detect the binding ability of the compound of the present disclosure to PD-1/PD-L1.
The purchased kit (CisBio, #64CUS000C-1) contains reagents required for experiments such as PD-1, PD-L1, anti-tag1-Eu, Anti-tag2-XL665, Dilute Buffer, and Detection Buffer.
• 1. The compound was configured with 100% DMSO into 10 concentrations with a concentration gradient of 3 times. • 2. The DMSO solution of the compound was added to Dilute Buffer solution, and the mixture was mixed well and transferred to a 96-well plate. • 3. PD-L1 was diluted with Dilute Buffer solution and then added to the above 96-well plate. • 4. PD-1 was diluted with Dilute Buffer solution and then added to the above 96-well plate, and incubated at room temperature for 30 minutes. • 5. One part of anti-tag1-Eu and one part of Anti-tag2-XL665 were added to Detection Buffer solution, and the mixture was mixed well and transferred to the above 96-well plate. • 6. The mixture in the 96-well plate was incubated at room temperature for 1 to 24 hours. • 7. The HTRF values were read with Envision.
A general note: Time-resolved FRET reads energy transfer from a long-lived donor to a nearby acceptor.

The subject of data set [1] is MC38-PDL1 tumor (MC-38-hPD-L1 cells). In words: Tumor targeting study in Micro-PET/CT scanning, bilateral tumor model (Effect Embodiment 4), left tumor. Particulars: Micro-PET/CT imaging, bilateral tumor mice. In kind it is in vivo, C57BL/6J mice. The protocol: • Tumor targeting study of compound 80 in Micro-PET/CT scanning • Experimental animal information: C57BL/6J mice, SPF grade; 15-21 g; • Construction of Bilateral Tumor Model Mice: • Cell Culture
(§1) Human-derived PD-L1 gene knock-in MC-38 cells (MC-38-hPD-L1 cells) were adherently cultured in vitro, and the culture conditions were DMEM medium plus 10% heat-inactivated fetal bovine serum and hygromycinB (final concentration was […]), and the cells were cultured at 37° C. with 5% CO2. Subculture of 2-3 times a week. When the cells were in the exponential growth phase, the cells were harvested, counted, and the left side of the mice was inoculated subcutaneously.
(§2) Mouse-derived MC-38 cells were adherently cultured in vitro, and the culture conditions were DMEM medium plus 10% heat-inactivated fetal bovine serum, and the cells were cultured at 37° C. with 5% CO2. Subculture of 2-3 times a week. When the cells were in the exponential growth phase, the cells were collected, counted, and the right side of the mice was inoculated subcutaneously.
(§3) 100 μL of 1×10^6 MC-38-hPD-L1 cell suspension was inoculated subcutaneously on the left dorsal side of C57BL/6J mice. The same mice were subcutaneously inoculated with 100 μL of 1×10^6 MC-38 cell suspension on the right dorsal side on the second day. After inoculation, the mice were fed normally, and after a certain number of days, tumor-bearing mice with the volume of bilateral transplanted tumor in the range of 150 mm^3−350 mm^3 were selected for test.
After quality control, compound 80 was diluted with 10% ethanol in physiological saline, and the drug was extracted and injected into each animal through tail vein. The administration volume was 100 μL/animal, and the administration dose was 100-200 μCi/animal. The study of Micro-PET/CT imaging was performed at 0.5 h, 1.5 h, 2.5 h, 3.5 h after injection of compound 80.

In the next data set the test system is tumor. In words: Inhibitory effect on tumor in tumor-bearing mice. It counts as in vivo, C57/BL6 mice. As to conditions: tail vein injection, 45 MBq per mouse, compared with the control group (PBS). An excerpt:
• 1. Inhibitory effect of compound 78 on tumor • 1.1 Experimental animal information: tumor-bearing C57/BL6 mice; SPF grade; weight range: 17-20 g; Shanghai Qi'up Biomedical Technology Co., Ltd. • 1.2 Experimental process
Ten tumor-bearing mice with tumor volumes of 10-100 mm^3 were systematically and randomly divided into 2 groups according to tumor size, with 5 mice in each group, corresponding to PBS and compound 78 respectively. After anesthesia with isoflurane, tumor-bearing mice were injected into the tail vein with compound 78 with 45 MBq (approximately 1.2 mCi) per mouse and a volume of 0.2 mL. After administration, the tumor size and weight of the animals were measured periodically, and the tumor growth curve was drawn to understand the inhibitory effect of the drug on tumor.

The subject of data set [2] is MC38-PDL1 tumor (MC-38-hPD-L1 cells). In words: Tumor targeting study in Micro-PET/CT scanning, bilateral tumor model (Effect Embodiment 3), left tumor. It counts as in vivo, C57BL/6J mice. As to conditions: Micro-PET/CT imaging, bilateral tumor mice.
Excerpt: Tumor targeting study of compound 79 in Micro-PET/CT scanning 1. Experimental animal information: C57BL/6J mice, SPF grade; 15-21 g; model mouse construction: bilateral tumor • Construction of bilateral tumor model mice • Cell culture
as §1, §2, §3
After quality control, compound 79 was diluted with 10% ethanol in physiological saline, and the drug was extracted and injected into each animal through tail vein. The administration volume was 100 μL/animal, and the administration dose was 100-200 μCi/animal. The study of Micro-PET/CT imaging was performed at 0.5 h, 1.5 h, 2.5 h, 3.5 h after injection of compound 79.

The structures appear in SMILES notation.

Chain of PD-1/PD-L1 (Q9NZQ7 19-238): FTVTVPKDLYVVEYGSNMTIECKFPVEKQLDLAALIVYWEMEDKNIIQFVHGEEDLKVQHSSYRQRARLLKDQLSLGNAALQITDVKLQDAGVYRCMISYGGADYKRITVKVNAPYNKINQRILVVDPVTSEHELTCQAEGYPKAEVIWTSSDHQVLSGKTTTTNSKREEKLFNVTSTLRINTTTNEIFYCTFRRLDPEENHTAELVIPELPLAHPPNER

On to `Cc1c(/C=C/c2cc(OCCOCCN3CCN(CC(=O)O)CCN(CC(=O)O)CCN(CC(=O)O)CC3)c(CN3CCCC[C@H]3C(=O)O)cc2C(F)(F)F)cccc1-c1ccccc1` [Compound 7], for which the IC50 (commonly the concentration that inhibits the measured activity by half) at PD-1/PD-L1 was 0.969 nM. For the same molecule, the “uptake value of left tumor (MC38-PDL1) compared with right tumor (MC38)” value (“uptake value … compared with right tumor (MC38)” below) in data set [1] was “significantly higher”.

`Cc1c(/C=C/c2cc(OCCCCNC(=O)CN3CCN(CC(=O)O)CCN(CC(=O)O)CCN(CC(=O)O)CC3)c(CN3CCCC[C@H]3C(=O)O)cc2C(F)(F)F)cccc1-c1ccccc1` [Compound 8] had an IC50 on PD-1/PD-L1 of 0.522 nM. Besides, the “uptake value … compared with right tumor (MC38)” value in data set [1] is on record as “significantly higher”. On PD-1/PD-L1, `Cc1ccc(CCCC(=O)NCCCC[C@H](NC(=O)CN2CCN(CC(=O)O)CCN(CC(=O)O)CCN(CC(=O)O)CC2)C(=O)NCCCCCCOc2cc(/C=C/c3cccc(-c4ccccc4)c3C)c(C(F)(F)F)cc2CN2CCCC[C@H]2C(=O)O)cc1` [Compound 26] returned an IC50 of 33.2 nM. Also, the “inhibition of tumor growth” value in the data set on tumor was “very good therapeutic effects on inhibiting tumor growth”.

For the molecule `Cc1ccc(CCCC(=O)NCCCC[C@H](NC(=O)CN2CCN(CC(=O)O)CCN(CC(=O)O)CCN(CC(=O)O)CC2)C(=O)NCCCCCCOc2cc(/C=C/c3cccc(-c4ccccc4)c3C)c(C(F)(F)F)cc2CN2CCCC[C@H]2C(=O)O)cc1` [Compound 27], the 50% inhibitory concentration (IC50) at PD-1/PD-L1 was found to be 13.6 nM. For the same molecule, the “uptake value … compared with right tumor (MC38)” value in data set [1] was “significantly higher”. `Cc1c(/C=C/c2cc(OCCCCCCNC(=O)CN3CCN(CC(=O)[O-])CCN(CC(=O)[O-])CCN(CC(=O)[O-])CC3)c(CN3CCCC[C@H]3C(=O)O)cc2C(F)(F)F)cccc1-c1ccccc1.[Ga+3]` [Compound 28]: the IC50 at PD-1/PD-L1 amounted to 0.562 nM. In data set [1], the “uptake value … compared with right tumor (MC38)” value is “significantly higher”. `Cc1ccc(CCCC(=O)NCCCC[C@H](NC(=O)CN2CCN(CC(=O)O)CCN(CC(=O)O)CCN(CC(=O)O)CC2)C(=O)NCCOCCOc2cc(/C=C/c3cccc(-c4ccccc4)c3C)c(C(F)(F)F)cc2CN2CCCC[C@H]2C(=O)O)cc1` [Compound 32] yielded a concentration for half-maximal inhibition (IC50) on PD-1/PD-L1 of 12.4 nM. In addition, the “inhibition of tumor growth” value in the data set on tumor is on record as “very good therapeutic effects on inhibiting tumor growth”.

Consider `Cc1c(/C=C/c2cc(OCCNC(=O)C3CCC(CNC(=O)CN4CCN(CC(=O)O)CCN(CC(=O)O)CCN(CC(=O)O)CC4)CC3)c(CN3CCCC[C@H]3C(=O)O)cc2C(F)(F)F)cccc1-c1ccccc1` (some centres unmarked) [Compound 35], for which, at PD-1/PD-L1, the IC50 worked out at 0.766 nM. Further, the “uptake value … compared with right tumor (MC38)” value in data set [1] was “significantly higher”.

At PD-1/PD-L1, `Cc1c(/C=C/c2cc(OCCNC(=O)C3CCN(C(=O)CN4CCN(CC(=O)O)CCN(CC(=O)O)CCN(CC(=O)O)CC4)CC3)c(CN3CCCC[C@H]3C(=O)O)cc2C(F)(F)F)cccc1-c1ccccc1` [Compound 36] gave an IC50 of 0.521 nM. Besides, in data set [1], the “uptake value … compared with right tumor (MC38)” value is “significantly higher”. The molecule `Cc1c(/C=C/c2cc(OCC3CCN(C(=O)CN4CCN(CC(=O)O)CCN(CC(=O)O)CCN(CC(=O)O)CC4)CC3)c(CN3CCCC[C@H]3C(=O)O)cc2C(F)(F)F)cccc1-c1ccccc1` [Compound 37] gave an IC50 at PD-1/PD-L1 of 0.729 nM. Moreover, in data set [1], the “uptake value … compared with right tumor (MC38)” value is on record as “significantly higher”. In turn, `Cc1c(/C=C/c2cc(OCCNC(=O)C3CCN(C(=O)CN4CCN(CC(=O)O)CCN(CC(=O)O)CCN(CC(=O)O)CC4)CC3)c(CN3CCCC[C@H]3C(=O)O)cc2C(F)(F)F)cccc1-c1ccccc1` [Compound 38] came in with an IC50 at PD-1/PD-L1 of 1.13 nM. Also, the “inhibition of tumor growth” value with tumor is reported as “very good therapeutic effects on inhibiting tumor growth”.

As to `N#Cc1c(-c2ccccc2)ccnc1/C=C/c1cc(OCCCCCN2CCN(CC(=O)[O-])CCN(CC(=O)[O-])CC2)c(CN2CCCC[C@H]2C(=O)O)cc1C(F)(F)F.[Al+3].[F-]` [Compound 58], the “uptake value … compared with right tumor (MC38)” value in data set [2] was “significantly higher”.

Turning to `N#Cc1c(-c2ccccc2)ccnc1/C=C/c1cc(OCC2CCN(C(=O)CN3CCN(CC(=O)[O-])CCN(CC(=O)[O-])CC3)CC2)c(CN2CCCC[C@H]2C(=O)O)cc1C(F)(F)F.[Al+3].[F-]` [Compound 60], in data set [2], the “uptake value … compared with right tumor (MC38)” value is recorded as “significantly higher”.

Consider `Cc1c(/C=C/c2cc(OCCCCNC(=O)CN3CCN(CC(=O)[O-])CCN(CC(=O)[O-])CC3)c(CN3CCCC[C@H]3C(=O)O)cc2C(F)(F)F)cccc1-c1ccccc1.[Al+3].[F-]` [Compound 62], for which the “uptake value … compared with right tumor (MC38)” value in data set [2] is listed as “significantly higher”. At PD-1/PD-L1, this molecule gave an IC50 of 0.529 nM.

With `Cc1c(/C=C/c2cc(OCCCNC(=O)CN3CCN(CC(=O)O)CCN(CC(=O)O)CC3)c(CN3CCCC[C@H]3C(=O)O)cc2C(F)(F)F)cccc1-c1ccccc1` [Compound 64], the “uptake value … compared with right tumor (MC38)” value in data set [2] is given as “significantly higher”. For the same molecule, the half-maximal inhibitory concentration (IC50) on PD-1/PD-L1 was found to be 0.7 nM.

Turning to `Cc1c(/C=C/c2cc(OCCOCCN3CCN(CC(=O)O)CCN(CC(=O)O)CCN(CC(=O)O)CC3)c(CN3CCCC[C@@H]3C(=O)O)cc2C(F)(F)F)cccc1-c1ccccc1` [Compound 70], the IC50 at PD-1/PD-L1 turned out to be 47.7 nM. Further, the “inhibition of tumor growth” value in the data set on tumor is listed as “very good therapeutic effects on inhibiting tumor growth”. At PD-1/PD-L1, `Cc1cc(CN2CCCC[C@H]2C(=O)O)c(OCCCCCN2CCN(CC(=O)O)CCN(CC(=O)O)CCN(CC(=O)O)CC2)cc1/C=C/c1cccc(-c2ccccc2)c1C` [Compound 72] came in with a concentration for half-maximal inhibition (IC50) of 112 nM. In the data set on tumor, the “inhibition of tumor growth” value is given as “very good therapeutic effects on inhibiting tumor growth”. `Cc1c(/C=C/c2cc(OCCOCCN3CCN(CC(=O)[O-])CCN(CC(=O)[O-])CCN(CC(=O)[O-])CC3)c(CN3CCCC[C@H]3C(=O)O)cc2C(F)(F)F)cccc1-c1ccccc1.[68Ga+3]` [Compound 75]: the “uptake value … compared with right tumor (MC38)” value in data set [1] is “significantly higher”. In the case of `COc1cc(C(=O)Nc2cccc(-c3cccc(/C=C/c4cc(OCCOCCN5CCN6CCN(CC5)CC(=O)[O][Al]([F])[O]C(=O)C6)c(CN5CCCC[C@H]5C(=O)O)cc4C(F)(F)F)c3C)c2C)ncc1CN1CCCC[C@H]1C(=O)O` [Compound 82], the “uptake value … compared with right tumor (MC38)” value in data set [2] is given as “significantly higher”.
